This passage reports IC50 and melting point results from paper PMC10889159, “Synthesis and Antitumor Activity Evaluation of Novel Echinatin Derivatives with a 1,3,4-Oxadiazole Moiety” (International Journal of Molecular Sciences, 2024).

The IC50 is the point on the concentration scale where inhibition reaches its midpoint. What is called melting point is the temperature of the solid-liquid transition.

Data set [1] relates to HT-29. In words: CCK8 antiproliferative assay, HT-29. The class given is cell-based. The settings on record: Homo sapiens, CCK8, 48 h, mean ± SD, n = 3. The protocol:
(§1) For all biological assays, all of the synthesized compounds were dissolved in DMSO. The cytotoxicity of all of the target compounds against the HCT116, K562, KU812, and HT-29 cells was determined by an CCK8 assay in vitro using adriamycin and echinatin as the controls. About 3000 cells per well were seeded in a 96-well plate and incubated for 24 h. Then, the cells were stimulated with different concentrations of test compounds for 48 h. The CCK8 solution (100 µL 0.5 mg/mL^−1) was added to each well, and the cells were incubated for another 4 h. Then, the absorbance of the samples was measured at 450 nm. The IC50 values were calculated according to the Logit method after obtaining the inhibitory rate. All experiments were repeated three times.
On the technique in general: Formazan colour is commonly taken as a measure of viable cells.

Data set [2] has as its system KU812. In words: CCK8 antiproliferative assay, KU812. The data set is classed as cell-based. The note with it: Homo sapiens, CCK8, 48 h, mean ± SD, n = 3. The protocol: as §1
Data set [3] deals with c-KIT (Homo sapiens, UniProt P10721). The data set is described as follows: Biochemical c-KIT activity assay (ADP-Glo). The note with it: 20 μM ATP, read-out: IC50 for c-KIT inhibition. The protocol:
The enzymatic activities of c-KIT were determined by in vitro kinase assays using the ADP-Glo reagent (Promega, Madison, WI, USA) according to the manufacturer’s instructions. Briefly, 250 ng of c-KIT protein was incubated with compounds in 10 μL of reaction buffer (40 mM Tris−HCl, pH 7.4, 2 mM MnCl2, 2 mM DTT, 20 mM MgCl2, 0.1 mg/mL bovine serum albumin, 1 mM Na3VO4) containing 20 μΜ ATP and 40 μM poly (Glu4-Tyr1) as substrates at 30 °C for 150 min. The ADP-Glo reagent was then added, and the mixture was incubated at 25 °C for 40 min. The kinase detection reagent was added for another 30 min at 25 °C. The converted ADP was determined by luminescence measurement using a Wallac Vector 1420 multilabel counter (PerkinElmer).
(ADP-Glo first removes unused ATP, then detects ADP through luciferase.)

Data set [4] concerns K562. In words: CCK8 antiproliferative assay, K562. The data set is classed as cell-based. The note with it: Homo sapiens, CCK8, 48 h, mean ± SD, n = 3. The protocol: as §1
The subject of data set [5] is HCT116. In words: CCK8 antiproliferative assay, HCT116. The class given is cell-based. The note with it: Homo sapiens, HCT-116; CCK8, 48 h, mean ± SD, n = 3. The protocol:
as §1

Chain of c-KIT (P10721 26-976): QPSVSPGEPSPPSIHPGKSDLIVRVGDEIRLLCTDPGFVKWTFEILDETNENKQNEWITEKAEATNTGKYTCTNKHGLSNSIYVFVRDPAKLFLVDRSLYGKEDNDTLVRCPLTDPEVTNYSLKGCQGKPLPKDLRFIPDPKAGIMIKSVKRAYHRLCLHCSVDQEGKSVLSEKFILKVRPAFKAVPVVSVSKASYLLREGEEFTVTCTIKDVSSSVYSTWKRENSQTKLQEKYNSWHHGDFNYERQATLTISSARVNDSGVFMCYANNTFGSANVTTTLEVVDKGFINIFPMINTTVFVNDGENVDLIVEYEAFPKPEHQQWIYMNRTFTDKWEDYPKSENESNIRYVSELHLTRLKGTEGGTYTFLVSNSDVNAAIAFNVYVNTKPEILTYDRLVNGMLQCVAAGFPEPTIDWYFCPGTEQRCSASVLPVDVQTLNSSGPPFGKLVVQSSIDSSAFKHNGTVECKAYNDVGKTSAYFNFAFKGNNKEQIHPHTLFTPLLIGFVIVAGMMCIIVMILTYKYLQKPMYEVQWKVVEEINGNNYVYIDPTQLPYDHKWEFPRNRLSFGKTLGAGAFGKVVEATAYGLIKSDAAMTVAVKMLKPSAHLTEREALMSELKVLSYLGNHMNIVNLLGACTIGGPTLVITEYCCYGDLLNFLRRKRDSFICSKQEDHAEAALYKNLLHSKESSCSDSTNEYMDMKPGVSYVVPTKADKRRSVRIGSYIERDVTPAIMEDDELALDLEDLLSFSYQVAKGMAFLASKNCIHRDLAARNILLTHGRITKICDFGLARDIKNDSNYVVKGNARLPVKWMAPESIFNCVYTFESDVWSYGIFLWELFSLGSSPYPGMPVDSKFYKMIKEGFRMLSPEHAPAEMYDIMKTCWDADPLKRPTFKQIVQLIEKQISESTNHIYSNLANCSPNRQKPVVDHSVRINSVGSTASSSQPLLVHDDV

With `CCOc1ccc(Nc2nnc(COc3ccc(C(=O)/C=C/c4ccc(O)cc4OC)cc3)o2)cc1` [Compound T3], the melting point lay within 200.1 to 200.4 °C. This molecule also had an IC50 in data set [1] of 5.16 ± 0.11 µM. Further, the IC50 in data set [2] was 17.2 ± 0.67 µM. Further, in data set [3], the IC50 was determined as 0.237 µM. The molecule also displayed an IC50 in data set [4] of 15.5 ± 1.09 µM. This molecule returned an IC50 in data set [5] of 2.47 ± 0.56 µM.

Regarding `COc1cc(O)ccc1/C=C/C(=O)c1ccc(OCc2nnc(Nc3ccc(F)cc3F)o2)cc1` [Compound T16, (E)-1-{4-{{5-[(2,4-Difluorophenyl)amino]-1,3,4-oxadiazol-2-yl}methoxy}phenyl}-3-(4-hydroxy-2-methoxy-phenyl)propenone], the melting point was in the range of 223.4 to 223.9 °C. For the same molecule, in data set [1], the IC50 is greater than 30 µM. In data set [2], this molecule displayed an IC50 greater than 30 µM. In data set [4], the half-maximal inhibitory concentration (IC50) was greater than 30 µM. Also, in data set [5], the IC50 was greater than 30 µM.

Take `COc1cc(O)ccc1/C=C/C(=O)c1ccc(OCc2nnc(Nc3ccc(C)cc3)o2)cc1` [Compound T1, (E)-3-(4-Hydroxy-2-methoxyphenyl)-1-{4-{[5-(p-tolylamino)-1,3,4-oxadiazol-2-yl]methoxy}phenyl}propen-one]: the melting point was in the range of 186.1 to 189.4 °C. This molecule also came in with an IC50 in data set [1] of 7.1 ± 0.45 µM. This molecule also displayed an IC50 in data set [2] of 9.55 ± 0.17 µM. The IC50 in data set [4] came to 22.05 ± 0.12 µM. For the same molecule, the IC50 in data set [5] came to 4.85 ± 0.32 µM.

`COc1cc(O)ccc1/C=C/C(=O)c1ccc(OCc2nnc(Nc3ccc(C(C)(C)C)cc3)o2)cc1` [Compound T8] registered a melting point of 197.1 to 198.5 °C. In addition, the IC50 in data set [1] came to 4.94 ± 0.25 µM. In data set [2], this molecule registered a 50% inhibitory concentration (IC50) of 12 ± 1.28 µM. Besides, the IC50 in data set [3] came out at 0.613 µM. In data set [4], this molecule registered an IC50 of 19.48 ± 0.12 µM. In data set [5], this molecule showed an IC50 of 6.51 ± 0.19 µM.

Regarding `COc1cc(O)ccc1/C=C/C(=O)c1ccc(O)cc1` [Echinatin], the IC50 is 10.4 ± 0.87 µM in data set [1], 13.8 ± 0.33 µM in data set [2], greater than 30 µM in data set [4] and 4.54 ± 0.76 µM in data set [5].

Molecule `COc1cc(O)ccc1/C=C/C(=O)c1ccc(OCc2nnc(Nc3ccccc3Cl)o2)cc1` [Compound T13, (E)-1-{4-{{5-[(2-Chlorophenyl)amino]-1,3,4-oxadiazol-2-yl}methoxy}phenyl}-3-(4-hydroxy-2-methoxyphen-yl)propenone] yielded a melting point of 191.3 to 191.8 °C. Besides, in data set [1], the half-inhibitory concentration (IC50) was found to be 13.9 ± 0.67 µM. The same molecule showed an IC50 in data set [2] greater than 30 µM. Besides, the half-maximal inhibitory concentration (IC50) in data set [4] was greater than 30 µM. Moreover, inhibition in data set [5] was half-maximal at 10.2 ± 0.87 µM (IC50).

Regarding `COc1cc(O)ccc1/C=C/C(=O)c1ccc(OCc2nnc(Nc3cccc(C)c3)o2)cc1` [Compound T10, (E)-3-(4-Hydroxy-2-methoxyphenyl)-1-{4-{[5-(m-tolylamino)-1,3,4-oxadiazol-2-yl]methoxy}phenyl}propen-one], the melting point was in the range of 187.6 to 190.8 °C. The IC50 in data set [1] was greater than 30 µM. In addition, the IC50 in data set [2] was greater than 30 µM. The molecule further showed a concentration for half-maximal inhibition (IC50) in data set [4] greater than 30 µM. Moreover, the IC50 in data set [5] was 7.62 ± 1.23 µM.

On to `FC(F)(F)c1ccc(CNc2ccc(Cc3c[nH]c4ncccc34)cn2)cc1` [PLX647, reference compound], for which the IC50 in data set [3] stood at 0.068 µM.

Consider `COc1cc(O)ccc1/C=C/C(=O)c1ccc(OCc2nnc(Nc3ccc(Cl)cc3)o2)cc1` [Compound T7, (E)-1-{4-{{5-[(4-Chlorophenyl)amino]-1,3,4-oxadiazol-2-yl}methoxy}phenyl}-3-(4-hydroxy-2-methoxyphen-yl)propenone], for which the melting point fell in the range of 211.4 to 212.1 °C. Besides, the IC50 in data set [1] was greater than 30 µM. It took 17.5 ± 1.77 µM to reach half-maximal inhibition in data set [2] (IC50). In addition, the IC50 in data set [4] was greater than 30 µM. In data set [5], this molecule had an IC50 of 2.08 ± 0.54 µM.

In the case of `CCOc1ccccc1Nc1nnc(COc2ccc(C(=O)/C=C/c3ccc(O)cc3OC)cc2)o1` [Compound T11, (E)-1-{4-{{5-[(2-Ethoxyphenyl)amino]-1,3,4-oxadiazol-2-yl}methoxy}phenyl}-3-(4-hydroxy-2-methoxyphe-nyl)propenone], the melting point lay in the range of 175.4 to 188.3 °C. This molecule returned a concentration for half-maximal inhibition (IC50) in data set [1] greater than 30 µM. In data set [2], this molecule registered an IC50 greater than 30 µM. The IC50 in data set [4] was greater than 30 µM. The molecule further came in with an IC50 in data set [5] greater than 30 µM.

Consider `COc1ccc(Nc2nnc(COc3ccc(C(=O)/C=C/c4ccc(O)cc4OC)cc3)o2)cc1` [Compound T2, (E)-3-(4-Hydroxy-2-methoxyphenyl)-1-{4-{{5-[(4-methoxyphenyl)amino]-1,3,4-oxadiazol-2-yl}methoxy}phenyl}p-ropenone], for which the melting point was 212.6 to 213.6 °C. For the same molecule, the midpoint of inhibition in data set [1], the IC50, lay at 8.78 ± 0.12 µM. Moreover, the IC50 in data set [2] was determined as 13.3 ± 0.39 µM. In data set [4], this molecule gave an IC50 greater than 30 µM. The molecule further gave an IC50 in data set [5] of 3.97 ± 0.53 µM.

For `COc1cc(O)ccc1/C=C/C(=O)c1ccc(OCc2nnc(Nc3ccc(F)cc3)o2)cc1` [Compound T6, (E)-1-{4-{{5-[(4-Fluorophenyl)amino]-1,3,4-oxadiazol-2-yl}methoxy}phenyl}-3-(4-hydroxy-2-methoxyphen-yl)propenone], the melting point lay within 211.8 to 214.1 °C. For the same molecule, the IC50 in data set [1] is greater than 30 µM. Also, inhibition in data set [2] was half-maximal at 16.9 ± 1.58 µM (IC50). Besides, in data set [4], the IC50 was greater than 30 µM. Besides, in data set [5], the IC50 came to 4.39 ± 0.71 µM.

The molecule `COc1cc(O)ccc1/C=C/C(=O)c1ccc(OCc2nnc(Nc3ccccc3F)o2)cc1` [Compound T12, (E)-1-{4-{{5-[(2-Fluorophenyl)amino]-1,3,4-oxadiazol-2-yl}methoxy}phenyl}-3-(4-hydroxy-2-methoxyphen-yl)propenone] displayed a melting point of 186.2 to 187.4 °C. Also, the IC50 in data set [1] came out at 12.8 ± 0.98 µM. Also, the IC50 in data set [2] is greater than 30 µM. In data set [4], this molecule had an IC50 greater than 30 µM. The molecule also yielded an IC50 in data set [5] of 6.14 ± 1.45 µM.

Take `COc1cc(O)ccc1/C=C/C(=O)c1ccc(OCc2nnc(Nc3c(Cl)cccc3Cl)o2)cc1` [Compound T18, (E)-1-{4-{{5-[(2,6-Dichlorophenyl)amino]-1,3,4-oxadiazol-2-yl}methoxy}phenyl}-3-(4-hydroxy-2-methoxy-phenyl)propenone]: the melting point fell in the range of 172.3 to 174.6 °C. In data set [1], this molecule returned an IC50 greater than 30 µM. Besides, the half-inhibitory concentration (IC50) in data set [2] was greater than 30 µM. Moreover, in data set [4], the IC50 is greater than 30 µM. In addition, in data set [5], the IC50 is greater than 30 µM.

As to `COc1cc(O)ccc1/C=C/C(=O)c1ccc(OCc2nnc(Nc3cccc(Cl)c3)o2)cc1` [Compound T14, (E)-1-{4-{{5-[(3-Chlorophenyl)amino]-1,3,4-oxadiazol-2-yl}methoxy}phenyl}-3-(4-hydroxy-2-methoxyphen-yl)propenone], the melting point fell in the range of 225 to 225.9 °C. Moreover, the midpoint of inhibition in data set [1], the IC50, lay at 13.2 ± 0.53 µM. The IC50 in data set [2] is greater than 30 µM. The half-maximal inhibitory concentration (IC50) in data set [4] was greater than 30 µM. This molecule came in with an IC50 in data set [5] of 9.83 ± 1.98 µM.

In the case of `COc1cc(O)ccc1/C=C/C(=O)c1ccc(OCc2nnc(Nc3ccccc3C)o2)cc1` [Compound T9], the melting point lay within 206.5 to 209.2 °C. This molecule also registered an IC50 in data set [1] greater than 30 µM. Further, the IC50 in data set [2] was greater than 30 µM. Further, the IC50 in data set [4] is greater than 30 µM. Besides, half-maximal inhibition in data set [5] (IC50) was put at 10 ± 0.93 µM.

As to `COc1cc(O)ccc1/C=C/C(=O)c1ccc(OCc2nnc(Nc3ccc(OC(F)(F)F)cc3)o2)cc1` [Compound T5], the melting point lay in the range of 227.6 to 228.4 °C. In data set [1], this molecule showed an IC50 of 3.64 ± 0.21 µM. The same molecule registered an IC50 in data set [2] of 12.45 ± 0.02 µM. The molecule also had an IC50 in data set [4] greater than 30 µM. The molecule further came in with an IC50 in data set [5] of 3.94 ± 0.33 µM.

With `COc1cc(O)ccc1/C=C/C(=O)c1ccc(OCc2nnc(Nc3c(F)cccc3F)o2)cc1` [Compound T17, (E)-1-{4-{{5-[(2,6-Difluorophenyl)amino]-1,3,4-oxadiazol-2-yl}methoxy}phenyl}-3-(4-hydroxy-2-methoxy-phenyl)propenone], the melting point fell in the range of 193 to 194.3 °C. Besides, the IC50 in data set [1] is greater than 30 µM. This molecule showed a 50% inhibitory concentration (IC50) in data set [2] greater than 30 µM. Also, the IC50 in data set [4] is greater than 30 µM. The molecule further had an IC50 in data set [5] greater than 30 µM.

Molecule `COc1cc(O)ccc1/C=C/C(=O)c1ccc(OCc2nnc(Nc3ccc(C)cc3C)o2)cc1` [Compound T15, (E)-1-{4-{{5-[(2,4-Dimethylphenyl)amino]-1,3,4-oxadiazol-2-yl}methoxy}phenyl}-3-(4-hydroxy-2-methoxy-phenyl)propenone] registered a melting point of 192.9 to 194.1 °C. For the same molecule, in data set [1], the IC50 is greater than 30 µM. Besides, the IC50 in data set [2] was greater than 30 µM. Also, the IC50 in data set [4] was greater than 30 µM. For the same molecule, the IC50 in data set [5] was greater than 30 µM.

Turning to `COc1cccc2c1C(=O)c1c(O)c3c(c(O)c1C2=O)C[C@@](O)(C(=O)CO)C[C@@H]3O[C@H]1C[C@H](N)[C@H](O)[C@H](C)O1` [Adriamycin, reference compound], the IC50 worked out at 2.7 ± 0.71 µM in data set [1], 4.14 ± 0.53 µM in data set [2], 4.22 ± 0.44 µM in data set [4] and 1.5 ± 0.19 µM in data set [5].
